One may read the Ki as the equilibrium dissociation constant of an inhibitor or competing ligand from its target.

One test has as its target PSMA (Homo sapiens (Human), UniProt Q04609). Description: PSMA inhibitory activity (NAAG hydrolysis by LNCaP cell lysate, Amplex Red glutamate detection). The following applies: for Ki / inhibition at 6.667 µM: LNCaP cell lysate; for Ki: NAAG substrate, Ki by Cheng-Prusoff equation; for inhibition at 6.667 µM: inhibitor 6667 nM, read-out: % inhibited at 6667 nM. It counts as biochemical. As to the method: A LNCaP cell lysate (total protein concentration: 125 μg/mL) was prepared in advance. 25 μL of the cell lysate, 25 μL of the inhibitor and 25 μL of N-acetylaspartylglutamate (NAAG, 16 μM) were incubated together in a 96-well plate (Costar Assay Plate, Cat#. 3925) at 37° C. for 180 min. The amount of glutamate released by hydrolysis of NAAG was measured using an Amplex Red Glutamic Acid Kit (Molecular Probes Inc., Eugene, OR) working solution (50 μL) after incubation for 30 min Fluorescence were measured using Synergy H1 Hybrid Reader (BioTek Instruments, Inc., Winooski, Vermont) at excitation wavelength of 530 nm and emission wavelength of 590 nm. An inhibition curve was plotted by a semi-logarithmic method. […] The inhibition constant (Ki) of the enzyme was calculated by the Cheng-Prusof equation. Each experiment was performed in triplicates. Data analysis was performed by GraphPad Prism 7.0 (GraphPad Software, San Diego, California).

Test [1] addresses PSMA (LNCaP cells with high PSMA expression) (Homo sapiens (Human), UniProt Q04609). The test is described as follows: Flow cytometric analysis: inhibition of YC-36 staining of LNCaP cells. Format: cell-based. The following applies: 2 μM YC-36 plus 200 μM Compound S2 (100×), 1 h, room temperature, flow cytometry. The method, then:
LNCaP cells were diluted to 1×10^6/mL with RPMI-1640 (containing 10% FBS). For staining, the cells and 2 μM YC-36 were incubated at room temperature for 1 h, and then washed twice with the same medium. The cells were resuspended in cold PBS. For the inhibition group, the cells were incubated with 2 μM YC-36 and 200 μM Compound S2 for 1 hour at room temperature. The cells were analyzed by BD Influs Cell Sorter (BD Biosciences, San Jose, CA95131, USA) flow cytometry and the FlowJo software, and the results are shown in FIG. 6. The black area (left in Panel A) represents the LNCaP cells without dye, and the blue area (right in Panel A) represents the LNCaP cells after co-incubation with YC-36.
YC-36 is a fluorescent molecule having a high affinity for PSMA, and can selectively stain cells with high PSMA expression (Kiess, A.P., et al., Auger Radiopharmaceutical Therapy Targeting Prostate […]. J Nucl Med, 2015. 56(9): p. 1401-1407).

A further test has as its target PSMA (LNCaP cells) (Homo sapiens (Human), UniProt Q04609). Description: Fluorescence microscopy imaging of LNCaP cells stained with Compound S1, with or without Compound S2. Format: cell-based. The following applies: room temperature. As to the method: LNCaP cells were diluted to 1×10^6/mL with RPMI-1640 (containing 10% FBS). For staining, the cells and 2 μM Compound S1 were incubated at room temperature for 1 h. For the inhibition group, the cells were incubated with 2 μM Compound S1 and 200 μM Compound S2 together for 1 h at room temperature. After the staining was completed, excess dye compound was removed by centrifugation, and the cells were resuspended in cold PBS and blown well, 100 μL of which was taken and added to a 96-well plate, left for several minutes and then observed under a fluorescence microscope.

Chain of PSMA (Q04609 whole entry): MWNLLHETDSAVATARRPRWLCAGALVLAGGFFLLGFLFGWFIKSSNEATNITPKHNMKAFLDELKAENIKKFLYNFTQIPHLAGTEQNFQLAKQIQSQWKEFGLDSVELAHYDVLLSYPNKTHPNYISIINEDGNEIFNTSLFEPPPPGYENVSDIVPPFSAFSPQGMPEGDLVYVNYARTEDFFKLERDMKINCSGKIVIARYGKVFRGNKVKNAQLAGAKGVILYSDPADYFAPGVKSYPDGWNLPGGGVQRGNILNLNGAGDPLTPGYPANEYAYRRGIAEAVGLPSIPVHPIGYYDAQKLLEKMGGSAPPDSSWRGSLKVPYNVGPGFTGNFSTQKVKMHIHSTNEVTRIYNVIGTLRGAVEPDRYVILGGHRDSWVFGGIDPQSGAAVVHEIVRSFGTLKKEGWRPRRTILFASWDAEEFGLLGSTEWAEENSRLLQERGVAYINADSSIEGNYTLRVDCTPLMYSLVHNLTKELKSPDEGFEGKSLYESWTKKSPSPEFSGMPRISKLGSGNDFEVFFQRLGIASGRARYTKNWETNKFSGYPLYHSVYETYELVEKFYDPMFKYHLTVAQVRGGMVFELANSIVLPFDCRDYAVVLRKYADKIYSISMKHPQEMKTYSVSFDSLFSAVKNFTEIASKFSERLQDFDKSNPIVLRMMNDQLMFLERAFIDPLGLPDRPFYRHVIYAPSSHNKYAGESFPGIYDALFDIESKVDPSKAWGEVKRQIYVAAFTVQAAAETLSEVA
Chain of PSMA (LNCaP cells) (Q04609 whole entry): as above
Chain of PSMA (LNCaP cells with high PSMA expression) (Q04609 whole entry): as above

Take `CC(C)C[C@H](NC(=O)N[C@@H](CNC(=O)C(=O)O)C(=O)O)C(=O)O` [Compound S3, (S)-2-(3-((S)-1-carboxy-2-(carboxyformamido)ethyl)ureido)-4-methylpentanoic acid]: the Ki at PSMA amounted to 5.69 nM.

As to `O=C(N[C@@H](CCCCNC(=O)c1ccc(I)cc1)C(=O)O)N[C@@H](CNC(=O)C(=O)O)C(=O)O` [Compound S2, (45,85)-14-(4-iodophenyl)-1,6,14-trioxo-2,5,7,13-tetraazatetradecane-1,4,8-tric arboxylic acid], the Ki at PSMA turned out to be 0.08 nM. The “affinity relative to ZJ-43” value on PSMA (fold higher affinity than ZJ-43, from Ki in Table 1) is on record as 44 times. In addition, the “inhibition of staining of LNCaP cells by YC-36” value in test [1] is on record as “significantly inhibited”. On PSMA (LNCaP cells) (2 μM Compound S1 plus 200 μM Compound S2 (100×), 1 h), the “inhibition of staining of LNCaP cells by the blue dye Compound S1” value was “significantly inhibit”.

`Nc1ccc2c(CC(=O)NCCCC[C@H](NC(=O)N[C@@H](CNC(=O)C(=O)O)C(=O)O)C(=O)O)cc(=O)oc2c1` [Compound S1, (45,85)-15-(7-amino-2-oxo-2H-chromen-4-yl)-1,6,14-trioxo-2,5,7,13-tetraazapentadecane-1,4,8-tricarboxylic acid]: the Ki at PSMA worked out at 5.96 nM. The “staining of LNCaP cells” value on PSMA (LNCaP cells) (2 μM Compound S1, 1 h) is “stained the cells by specific binding to PSMA”.

Consider `CC(C)C[C@H](NC(=O)N[C@@H](CNC(=O)c1c[nH]cn1)C(=O)O)C(=O)O` [Comparative Compound DS2, (S)-2-(3-((S)-1-carboxy-2-(1H-imidazole-4-carboxamido)ethyl)ureido)-4-methylpentanoic acid], for which, at PSMA, the Ki is over 1000 nM and the inhibition at 6.667 µM was 20.6%.

On to `CC(C)C[C@H](NC(=O)N[C@@H](CNC(=O)c1ncc[nH]1)C(=O)O)C(=O)O` [Comparative Compound DS1, (S)-2-(3-((S)-1-carboxy-2-(1H-imidazole-2-carboxamido)ethyl)ureido)-4-methylpentanoic acid], for which, on PSMA, the Ki was over 1000 nM and the inhibition at 6.667 µM was found to be 10.7%.

As to `CC(C)C[C@H](NC(=O)N[C@@H](CNC(=O)c1c[nH]nn1)C(=O)O)C(=O)O` [Comparative Compound DS3, (S)-2-(3-((S)-1-carboxy-2-(1H-1,2,3-triazole-4-carboxamido)ethyl)ureido)-4-methylpentanoic acid], on PSMA, the Ki is over 1000 nM and the inhibition at 6.667 µM turned out to be 47.3%.

For the origin of these results see US20230414794A1, “PSMA INHIBITOR, COMPOUND AND APPLICATION” (PEKING UNIVERSITY FIRST HOSPITAL, priority 2019, published 2023).
